Measurements published in patent publication US20250320206A1, “STAT6 DEGRADERS” (Gilead Sciences, Inc., priority 2024, published 2025).
pEC50: −log10 of the molar value.

What was measured:
[1] = biological target: T1, STAT6 (Homo sapiens, UniProt P42226); experiment: Stat6 Degrader Assay (HiBiT based, HeLa LgBiT clone 4.14); type: cell-based; conditions: HeLa LgBiT clone 4.14 HiBiT-STAT6, 4-24 h incubation; values given for compounds with >80% Emax; geometric mean; read-out: STAT6 degradation DC50
T1 construct: These cells express endogenous STAT6; host or cells: HeLa LgBiT clone 4.14
T1 sequence (P42226 1-847): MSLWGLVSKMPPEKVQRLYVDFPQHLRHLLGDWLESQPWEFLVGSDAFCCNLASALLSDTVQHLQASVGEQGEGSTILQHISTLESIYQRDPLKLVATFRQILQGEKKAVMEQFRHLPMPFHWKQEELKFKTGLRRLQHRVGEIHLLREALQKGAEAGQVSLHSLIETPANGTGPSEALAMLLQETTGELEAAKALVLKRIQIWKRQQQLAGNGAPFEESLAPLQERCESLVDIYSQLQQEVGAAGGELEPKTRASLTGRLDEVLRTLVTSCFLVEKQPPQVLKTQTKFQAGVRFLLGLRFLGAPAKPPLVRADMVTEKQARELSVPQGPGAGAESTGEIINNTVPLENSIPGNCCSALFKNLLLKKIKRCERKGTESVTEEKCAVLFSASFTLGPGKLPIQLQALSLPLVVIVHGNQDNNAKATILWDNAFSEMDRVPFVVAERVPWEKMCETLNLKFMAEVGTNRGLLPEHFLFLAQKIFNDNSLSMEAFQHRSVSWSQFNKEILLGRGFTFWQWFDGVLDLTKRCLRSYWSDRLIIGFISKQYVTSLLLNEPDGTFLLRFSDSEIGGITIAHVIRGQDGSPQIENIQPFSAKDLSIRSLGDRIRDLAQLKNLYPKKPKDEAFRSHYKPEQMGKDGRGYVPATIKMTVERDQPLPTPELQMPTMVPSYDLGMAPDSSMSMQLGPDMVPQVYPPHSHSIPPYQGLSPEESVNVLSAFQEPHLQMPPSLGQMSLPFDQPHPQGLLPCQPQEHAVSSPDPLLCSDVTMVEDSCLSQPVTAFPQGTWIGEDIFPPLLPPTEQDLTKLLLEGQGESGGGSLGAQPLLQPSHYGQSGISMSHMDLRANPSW
Outline: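 HeLa LgBiT clone 4.14 cells with CRISPR HiBiT-tagged endogenous STAT6, 5000 cells/well, compound dosed then incubated 4-24 h at 37° C, 5% CO2. Nano-Glo substrate added, 0.5 h, luminescence read as non-degraded STAT6. Terfenadine 50 μM (cell kill) defines 100% degradation.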

[2] = tested on: Eotaxin-3 release in human whole blood stimulated with IL-4; experiment: Human Whole Blood Eotaxin-3 Assay (IL-4 stimulated eotaxin-3 release); type: cell-based; conditions: IL-4 stimulation, 48 h, values given for compounds with >80% Emax, geometric mean
Outline: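 Lithium-heparin human whole blood preincubated 2 h at 37° C with 4-fold serially diluted compounds (0.5% DMSO), then stimulated with recombinant human IL-4 ([…]) for 48 h. Eotaxin-3 (CCL26) in supernatant quantified by MSD immunoassay.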

| DC50 [1] | pEC50 [2] | Compound |
| --- | --- | --- |
| 4 nM | 8.38 | CNc1ccn(-c2ccnc3c2cc([C@H](C)N2CC=C(c4c(C)cc(C(=O)N5CCC(CN6CCN(c7ccc8c(c7)C(C)(C)C(=O)N8[C@@H]7CCC(=O)NC7=O)CC6)CC5)cc4F)CC2)n3C)c(=O)c1 (single isomer, unassigned) [Example 3u281] |
| 0.1 nM | 10.00 | CNc1cc(=O)n(-c2ccnc3c2cc(CN2CCC(c4c(F)cc(C(=O)N(C)c5ccc(C6CCN(Cc7ccc8c(c7)n(C)c(=O)n8C7CCC(=O)NC7=O)CC6)cc5)cc4F)CC2)n3C)cc1F (centres unmarked) [Example 3u245, N-(4-(1-((1-(2,6-dioxopiperidin-3-yl)-3-methyl-2-oxo-2,3-dihydro-1H-benzo[d]imidazol-5-yl)methyl)piperidin-4-yl)phenyl)-3,5-difluoro-4-(1-((4-(5-fluoro-4-(methylamino)-2-oxopyridin-1 (2H)-yl)-1-methyl-1H-pyrrolo[2,3-b]pyridin-2-yl)methyl)piperidin-4-yl)-N-methylbenzamide] |
| 1.9 nM | 8.35 | CNc1cc(=O)n(-c2ccnc3c2cc(CN2CCC(c4c(F)cc(C(=O)N5CCC(CN6CCN(Cc7ccc8c(c7)C7(CC7)C(=O)N8[C@@H]7CCC(=O)NC7=O)C[C@@H]6C)CC5)cc4F)CC2)n3C)cc1F (single isomer, unassigned) [Example 3u221] |
| 0.2 nM | 8.92 | CNc1ccn(-c2ccnc3c2cc(CN2CC=C(c4c(C)cc(C(=O)N(C)c5ccc(C6CCN(Cc7ccc8c(c7)C(C)(C)C(=O)N8C7CCC(=O)NC7=O)CC6)cc5)cc4F)CC2)n3C)c(=O)c1 (centres unmarked) [Example 3u228, N-(4-(1-((1-(2,6-dioxopiperidin-3-yl)-3,3-dimethyl-2-oxoindolin-5-yl)methyl)-piperidin-4-yl)phenyl)-3-fluoro-N,5-dimethyl-4-(1-((1-methyl-4-(4-(methylamino)-2-oxopyridin-1 (2H)-yl)-1H-pyrrolo[2,3-b]pyridin-2-yl)methyl)-1,2,3,6-tetrahydropyridin-4-yl)benzamide] |
| 0.05 nM | 9.70 | CNc1ccn(-c2ccnc3c2cc([C@H](C)N2CC=C(c4c(C)cc(C(=O)N(C)c5ccc(C6CCN(Cc7ccc8c(c7)n(C)c(=O)n8[C@H]7CCC(=O)NC7=O)CC6)cc5)cc4F)CC2)n3C)c(=O)c1 (single isomer, unassigned) [Example 3u226] |

More lines, now with the values behind:

| Compound | DC50 [1] | pEC50 [2] |
| --- | --- | --- |
| Cc1cc(C(=O)N2CCC(CN3CCN(Cc4ccc5c(c4)n(C)c(=O)n5C4CCC(=O)NC4=O)C[C@@H]3C)CC2)cc(F)c1C1CCN(Cc2cc3c(-n4ccc5c(c4=O)CCN5)ccnc3n2C)CC1 (stereo partly drawn) [Example 3u39, 3-(5-(((S)-4-((1-(3-fluoro-5-methyl-4-(1-((1-methyl-4-(4-oxo-1,2,3,4-tetrahydro-5H-pyrrolo[3,2-c]pyridin-5-yl)-1H-pyrrolo[2,3-b]pyridin-2-yl)methyl)piperidin-4-yl)benzoyl)piperidin-4-yl)methyl)-3-methylpiperazin-1-yl)methyl)-3-methyl-2-oxo-2,3-dihydro-1H-benzo[d]imidazol-1-yl)piperidine-2,6-dione] | 4.3 nM | 8.64 |
| CNc1ccn(-c2ccnc3c2cc(CN2CCC(c4c(F)cc(C(=O)N5CCC(CN6CCN(Cc7ccc8c(c7)n(C7CC7)c(=O)n8[C@@H]7CCC(=O)NC7=O)C[C@@H]6C)CC5)cc4F)CC2)n3C)c(=O)c1 (single isomer, unassigned) [Example 3u218] | 2.6 nM | 9.10 |
| CNc1ccn(-c2ccnc3c2cc([C@H](C)N2CC=C(c4c(C)cc(C(=O)N5CCC(CN6CCN(Cc7ccc8c(c7)C7(CC7)C(=O)N8[C@H]7CCC(=O)NC7=O)C[C@@H]6C)CC5)cc4F)CC2)n3C)c(=O)c1 (single isomer, unassigned) [Example 3u191] | 0.4 nM | 9.30 |
| CNc1ccn(-c2ccnc3c2cc([C@H](C)N2CC=C(c4c(C)cc(C(=O)N5CCC(CN6CCN(Cc7ccc8c(c7)C(C)(C)C(=O)N8C7CCC(=O)NC7=O)C[C@@H]6C)CC5)cc4F)CC2)n3C)c(=O)c1 (stereo partly drawn) [Example 3u175, 3-(5-(((S)-4-((1-(3-fluoro-5-methyl-4-(1-((S)-1-(1-methyl-4-(4-(methylamino)-2-oxopyridin-1 (2H)-yl)-1H-pyrrolo[2,3-b]pyridin-2-yl)ethyl)-1,2,3,6-tetrahydropyridin-4-yl)benzoyl)-piperidin-4-yl)methyl)-3-methylpiperazin-1-yl)methyl)-3,3-dimethyl-2-oxoindolin-1-yl)piperidine-2,6-dione] | 1.3 nM | 8.42 |
| CNc1cc(=O)n(-c2ccnc3c2cc(CN2CC=C(c4c(F)cc(C(=O)N5CCC(CN6CCN(Cc7ccc8c(c7)n(C7CC7)c(=O)n8[C@@H]7CCC(=O)NC7=O)C[C@@H]6C)CC5)cc4F)CC2)n3C)cc1F (single isomer, unassigned) [Example 3u215] | 3.5 nM | 8.25 |
| CNc1cc(=O)n(-c2ccnc3c2cc(CN2CCC(c4c(F)cc(C(=O)N5CCC(CN6CCN(Cc7ccc8c(c7)C(C)(C)C(=O)N8C7CCC(=O)NC7=O)CC6)CC5)cc4F)CC2)n3C)cc1F (centres unmarked) [Example 3u57, 3-(5-((4-((1-(3,5-difluoro-4-(1-((4-(5-fluoro-4-(methylamino)-2-oxopyridin-1 (2H)-yl)-1-methyl-1H-pyrrolo[2,3-b]pyridin-2-yl)methyl)piperidin-4-yl)benzoyl)piperidin-4-yl)methyl)piperazin-1-yl)methyl)-3,3-dimethyl-2-oxoindolin-1-yl)piperidine-2,6-dione] | 12 nM | 7.60 |
| Cc1cc(C(=O)N2CCC(CN3CCN(Cc4ccc5c(c4)n(C)c(=O)n5C4CCC(=O)NC4=O)CC3)CC2)cc(F)c1C1=CCN([C@@H](C)c2cc3c(-n4cc(F)c5c(c4=O)CCN5)ccnc3n2C)CC1 (stereo partly drawn) [Example 3u85, 3-(5-((4-((1-(3-fluoro-4-(1-((S)-1-(4-(7-fluoro-4-oxo-1,2,3,4-tetrahydro-5H-pyrrolo[3,2-c]pyridin-5-yl)-1-methyl-1H-pyrrolo[2,3-b]pyridin-2-yl)ethyl)-1,2,3,6-tetrahydropyridin-4-yl)-5-methylbenzoyl)piperidin-4-yl)methyl)piperazin-1-yl)methyl)-3-methyl-2-oxo-2,3-dihydro-1H-benzo[d]imidazol-1-yl)piperidine-2,6-dione] | 3.1 nM | 8.28 |
| CNc1cc(=O)n(-c2ccnc3c2cc([C@H](C)N2CC=C(c4c(C)cc(C(=O)N5CCC(CN6CCN(Cc7ccc8c(c7)C(C)(C)C(=O)N8[C@@H]7CCC(=O)NC7=O)C[C@@H]6C)CC5)cc4F)CC2)n3C)cc1F (single isomer, unassigned) [Example 3u174] | 3.8 nM | 7.96 |
| CNc1cc(=O)n(-c2ccnc3c2cc(CN2CC=C(c4c(F)cc(C(=O)N5CCC(CN6CCN(Cc7ccc8c(c7)n(C)c(=O)n8[C@@H]7CCC(=O)NC7=O)C[C@@H]6C)CC5)cc4F)CC2)n3C)cc1F (single isomer, unassigned) [Example 3u55] | 7.6 nM | 8.51 |
| C[C@H]1CN(Cc2cc3c(cc2F)N(C2CCC(=O)NC2=O)C(=O)C3(C)C)CCN1CC1CCN(C(=O)c2cc(F)c(C3=CCN([C@@H](C)c4cc5c(-n6ccc7c(c6=O)CCN7)ccnc5n4C)CC3)c(F)c2)CC1 (stereo partly drawn) [Example 3u200, 3-(5-(((S)-4-((1-(3,5-difluoro-4-(1-((S)-1-(1-methyl-4-(4-oxo-1,2,3,4-tetrahydro-5H-pyrrolo[3,2-c]pyridin-5-yl)-1H-pyrrolo[2,3-b]pyridin-2-yl)ethyl)-1,2,3,6-tetrahydropyridin-4-yl)-benzoyl)piperidin-4-yl)methyl)-3-methylpiperazin-1-yl)methyl)-6-fluoro-3,3-dimethyl-2-oxoindolin-1-yl)piperidine-2,6-dione] | 2 nM | 8.00 |
| CNc1cc(=O)n(-c2ccnc3c2cc([C@H](C)N2CC=C(c4c(C)cc(C(=O)N5CCC(CN6CCN(Cc7ccc8c(c7)C(C)(C)C(=O)N8C7CCC(=O)NC7=O)C[C@@H]6C)CC5)cc4F)CC2)n3C)cc1F (stereo partly drawn) [Example 3u172, 3-(5-(((S)-4-((1-(3-fluoro-4-(1-((S)-1-(4-(5-fluoro-4-(methylamino)-2-oxopyridin-1 (2H)-yl)-1-methyl-1H-pyrrolo[2,3-b]pyridin-2-yl)ethyl)-1,2,3,6-tetrahydropyridin-4-yl)-5-methylbenzoyl)piperidin-4-yl)methyl)-3-methylpiperazin-1-yl)methyl)-3,3-dimethyl-2-oxoindolin-1-yl)piperidine-2,6-dione] | 2.9 nM | 7.88 |
